Experimental data reported in patent US7557111B2, “Substituted thieno[3,2-d]pyrimidines as CRF receptor antagonists” (Taisho Pharmaceutical Co., Ltd., priority 2004, dated 2009).
Structures can show the parent of a compound that is named as a salt.

melting point: 242 to 244 °C
Structure (SMILES): Cc1nc(N2CCC(CO)CC2)c2sc(C)c(-c3c(C)cc(Br)cc3C)c2n1 (as salt: HCl) [compound 1-004, {1-[7-(4-bromo-2,6-dimethyl-phenyl)-2,6-dimethyl-thieno[3,2-d]pyrimidin-4-yl]-piperidin-4-yl}-methanol hydrochloride]
